Measurements from article PMC12362783 (Advanced Science, 2025).

Assays:
[1] = biological target: PARP1 (Homo sapiens, UniProt P09874); experiment: PARP enzymatic inhibition ELISA (PARP1); format: biochemical; details: for IC50: n = 3, mean ± SD
Experimental: The PARP activity assay was performed by ChemPartner (Shanghai, China). Each well was precoated with histone (final conc.: 100 ng mL^−1) diluted in PBS buffer (contains 10 mmol L^−1 NaH2PO4 and 150 mmol L^−1 NaCl, pH 7.4) by incubation at 4 °C overnight. […] The reaction was initiated by the addition of 10 µL of PARP (final conc.: 0.007 nM/well) at room temperature for 60 min. Add 20 µL of anti‐Poly/Mono‐ADP Ribose Rabbit mAb. Incubate for 1.5 h at room temperature and wash the plate three times using PBST buffer. […] Incubate for 1 h at room temperature and wash the plate three times using PBST buffer. Add 25 µL Femto‐ECL Substrate A and Femto‐ECL Substrate B (1:1) mix. Immediately read chemiluminescence on Envision (Revvity, USA).

[2] = biological target: T1, ATR (Homo sapiens, UniProt Q13535); experiment: ATR kinase inhibition, Mobility Shift Assay; format: biochemical; details: n = 3, mean ± SD
T1 construct: purchased Eurofins 14-953
T1 sequence (Q13535 whole entry): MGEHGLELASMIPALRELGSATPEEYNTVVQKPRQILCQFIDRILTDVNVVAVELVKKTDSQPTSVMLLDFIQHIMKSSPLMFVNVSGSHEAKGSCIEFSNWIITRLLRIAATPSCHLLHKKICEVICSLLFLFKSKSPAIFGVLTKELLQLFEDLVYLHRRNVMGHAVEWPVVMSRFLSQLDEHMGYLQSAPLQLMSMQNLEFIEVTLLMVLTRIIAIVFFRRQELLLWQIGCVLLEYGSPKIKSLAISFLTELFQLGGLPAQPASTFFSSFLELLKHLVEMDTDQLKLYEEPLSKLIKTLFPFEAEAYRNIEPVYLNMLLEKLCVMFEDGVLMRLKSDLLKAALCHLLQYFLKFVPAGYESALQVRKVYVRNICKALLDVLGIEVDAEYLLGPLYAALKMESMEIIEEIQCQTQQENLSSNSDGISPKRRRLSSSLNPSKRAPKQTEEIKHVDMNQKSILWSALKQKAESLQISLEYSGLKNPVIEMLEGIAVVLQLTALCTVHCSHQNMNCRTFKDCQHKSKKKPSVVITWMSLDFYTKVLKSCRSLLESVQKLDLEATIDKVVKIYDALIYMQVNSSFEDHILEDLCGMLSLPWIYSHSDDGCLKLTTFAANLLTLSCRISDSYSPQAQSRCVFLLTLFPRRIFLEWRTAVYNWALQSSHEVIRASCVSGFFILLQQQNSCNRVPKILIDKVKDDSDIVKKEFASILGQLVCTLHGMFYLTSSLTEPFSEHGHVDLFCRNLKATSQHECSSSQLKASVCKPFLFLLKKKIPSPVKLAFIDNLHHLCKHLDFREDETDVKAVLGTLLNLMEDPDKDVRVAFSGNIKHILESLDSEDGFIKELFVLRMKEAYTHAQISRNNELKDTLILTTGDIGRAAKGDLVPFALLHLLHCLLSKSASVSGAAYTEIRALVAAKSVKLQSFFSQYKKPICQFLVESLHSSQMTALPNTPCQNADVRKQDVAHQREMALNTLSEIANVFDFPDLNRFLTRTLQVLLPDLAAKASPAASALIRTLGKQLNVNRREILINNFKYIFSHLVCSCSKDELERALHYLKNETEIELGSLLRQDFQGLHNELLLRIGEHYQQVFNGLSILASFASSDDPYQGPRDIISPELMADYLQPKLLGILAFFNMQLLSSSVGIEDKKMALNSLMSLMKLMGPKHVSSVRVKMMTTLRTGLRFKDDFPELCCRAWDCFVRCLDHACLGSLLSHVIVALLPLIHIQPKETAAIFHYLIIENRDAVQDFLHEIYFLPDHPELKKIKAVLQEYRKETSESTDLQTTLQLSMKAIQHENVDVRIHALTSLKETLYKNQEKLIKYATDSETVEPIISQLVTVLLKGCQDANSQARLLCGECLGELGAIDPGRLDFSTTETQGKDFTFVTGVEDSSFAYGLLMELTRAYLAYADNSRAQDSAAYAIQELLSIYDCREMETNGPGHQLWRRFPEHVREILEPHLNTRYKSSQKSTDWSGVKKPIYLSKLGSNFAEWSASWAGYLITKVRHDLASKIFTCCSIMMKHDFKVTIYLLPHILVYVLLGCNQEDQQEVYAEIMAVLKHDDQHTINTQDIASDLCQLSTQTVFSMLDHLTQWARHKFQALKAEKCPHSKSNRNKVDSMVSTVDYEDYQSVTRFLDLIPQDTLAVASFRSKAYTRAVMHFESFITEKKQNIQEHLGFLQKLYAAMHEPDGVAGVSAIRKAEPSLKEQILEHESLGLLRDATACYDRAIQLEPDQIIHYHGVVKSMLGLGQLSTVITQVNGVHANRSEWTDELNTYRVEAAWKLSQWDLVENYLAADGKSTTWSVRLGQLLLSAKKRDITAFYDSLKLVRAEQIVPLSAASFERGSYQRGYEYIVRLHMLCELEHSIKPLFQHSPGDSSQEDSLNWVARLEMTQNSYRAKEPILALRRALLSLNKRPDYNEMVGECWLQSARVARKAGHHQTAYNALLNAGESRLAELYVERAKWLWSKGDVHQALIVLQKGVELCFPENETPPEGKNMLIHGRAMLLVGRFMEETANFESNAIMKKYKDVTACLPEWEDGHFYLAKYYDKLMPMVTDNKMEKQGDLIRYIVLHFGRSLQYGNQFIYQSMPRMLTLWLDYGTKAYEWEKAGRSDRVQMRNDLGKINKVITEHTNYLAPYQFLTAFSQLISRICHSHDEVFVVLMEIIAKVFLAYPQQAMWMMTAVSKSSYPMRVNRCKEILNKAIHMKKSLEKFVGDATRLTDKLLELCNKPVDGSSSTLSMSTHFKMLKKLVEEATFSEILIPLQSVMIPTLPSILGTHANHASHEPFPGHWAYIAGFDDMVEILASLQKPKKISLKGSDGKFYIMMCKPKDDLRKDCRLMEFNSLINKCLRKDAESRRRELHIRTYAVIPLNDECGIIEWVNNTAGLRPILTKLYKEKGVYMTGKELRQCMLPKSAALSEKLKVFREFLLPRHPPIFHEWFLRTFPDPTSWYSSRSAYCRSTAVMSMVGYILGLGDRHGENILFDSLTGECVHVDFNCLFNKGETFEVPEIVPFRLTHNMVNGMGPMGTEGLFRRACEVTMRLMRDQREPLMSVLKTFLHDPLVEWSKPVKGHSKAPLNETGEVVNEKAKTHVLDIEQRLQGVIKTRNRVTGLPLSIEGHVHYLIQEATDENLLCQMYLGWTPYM
T1 sequence (Q8WXE1 whole entry partner): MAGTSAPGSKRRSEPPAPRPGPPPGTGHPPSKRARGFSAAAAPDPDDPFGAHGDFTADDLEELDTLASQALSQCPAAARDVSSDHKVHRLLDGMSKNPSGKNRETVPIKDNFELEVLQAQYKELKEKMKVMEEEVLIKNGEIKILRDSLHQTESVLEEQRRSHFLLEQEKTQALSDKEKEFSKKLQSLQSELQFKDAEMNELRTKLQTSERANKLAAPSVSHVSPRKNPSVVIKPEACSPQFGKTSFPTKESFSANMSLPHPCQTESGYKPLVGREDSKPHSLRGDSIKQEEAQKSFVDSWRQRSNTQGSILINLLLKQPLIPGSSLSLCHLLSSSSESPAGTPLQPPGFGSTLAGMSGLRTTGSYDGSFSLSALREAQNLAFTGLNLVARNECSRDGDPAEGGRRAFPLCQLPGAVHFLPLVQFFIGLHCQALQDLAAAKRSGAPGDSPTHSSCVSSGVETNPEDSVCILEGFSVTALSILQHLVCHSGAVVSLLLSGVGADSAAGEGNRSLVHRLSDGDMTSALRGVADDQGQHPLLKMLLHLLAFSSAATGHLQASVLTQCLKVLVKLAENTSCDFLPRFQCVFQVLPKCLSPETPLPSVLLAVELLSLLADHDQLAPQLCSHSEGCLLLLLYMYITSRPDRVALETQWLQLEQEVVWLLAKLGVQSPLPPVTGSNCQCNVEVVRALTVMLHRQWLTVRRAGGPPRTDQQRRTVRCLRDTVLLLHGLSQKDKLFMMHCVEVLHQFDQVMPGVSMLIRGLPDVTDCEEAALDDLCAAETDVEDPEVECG
Experimental: The in vitro ATR kinase inhibitory activities were determined by ChemPartner Co., Ltd. (Shanghai, China) using the Mobility Shift Assay. The tested compound was dissolved with DMSO and diluted to 1000/3 × of the final desired highest inhibitor concentration in the reaction. […] The assay wells were incubated at 28 °C for 4 h.

[3] = test system: MDA‐MB‐468; experiment: Cell growth inhibition, CellTiter‐Glo (CTG); format: cell-based; details: Homo sapiens, MDA-MB-468, 120 h; CTG, 5 days, n = 3
Experimental: (§1) All cells were grown in a humidified incubator at 37 °C and 5% CO2.
(§2) […] […] Relative viability was calculated by normalizing the raw luminescence counts of the treated groups to those of the DMSO control groups. IC₅₀ values were calculated using sigmoidal dose‐response curve fitting with GraphPad Prism 9.0 software.

[4] = test system: MDA‐MB‐231; experiment: Cell growth inhibition, CellTiter‐Glo (CTG); format: cell-based; details: Homo sapiens, MDA-MB-231, 120 h, read-out: IC50 MDA‐MB‐231; CTG, 5 days, n = 3
Experimental: as §1, §2

[5] = test system: MDA‐MB‐436; experiment: Cell growth inhibition, CellTiter‐Glo (CTG); format: cell-based; details: Homo sapiens, MDA-MB-436; @5.0 µM; read-out: MDA‐MB‐436 inhibitory rate at certain concentration
Experimental: as §1
Growth viability was determined by the CellTiter‐Glo luminescent viability assay (Promega) 5 days after drug treatment. Cell viability was measured immediately after dosing (Day 0) and after 5 days of incubation using CellTiter‐Glo (CTG, Promega, G7573). Relative viability was calculated by normalizing the raw luminescence counts of the treated groups to those of the DMSO control groups. IC₅₀ values were calculated using sigmoidal dose‐response curve fitting with GraphPad Prism 9.0 software.

Sequence of PARP1 (P09874 whole entry): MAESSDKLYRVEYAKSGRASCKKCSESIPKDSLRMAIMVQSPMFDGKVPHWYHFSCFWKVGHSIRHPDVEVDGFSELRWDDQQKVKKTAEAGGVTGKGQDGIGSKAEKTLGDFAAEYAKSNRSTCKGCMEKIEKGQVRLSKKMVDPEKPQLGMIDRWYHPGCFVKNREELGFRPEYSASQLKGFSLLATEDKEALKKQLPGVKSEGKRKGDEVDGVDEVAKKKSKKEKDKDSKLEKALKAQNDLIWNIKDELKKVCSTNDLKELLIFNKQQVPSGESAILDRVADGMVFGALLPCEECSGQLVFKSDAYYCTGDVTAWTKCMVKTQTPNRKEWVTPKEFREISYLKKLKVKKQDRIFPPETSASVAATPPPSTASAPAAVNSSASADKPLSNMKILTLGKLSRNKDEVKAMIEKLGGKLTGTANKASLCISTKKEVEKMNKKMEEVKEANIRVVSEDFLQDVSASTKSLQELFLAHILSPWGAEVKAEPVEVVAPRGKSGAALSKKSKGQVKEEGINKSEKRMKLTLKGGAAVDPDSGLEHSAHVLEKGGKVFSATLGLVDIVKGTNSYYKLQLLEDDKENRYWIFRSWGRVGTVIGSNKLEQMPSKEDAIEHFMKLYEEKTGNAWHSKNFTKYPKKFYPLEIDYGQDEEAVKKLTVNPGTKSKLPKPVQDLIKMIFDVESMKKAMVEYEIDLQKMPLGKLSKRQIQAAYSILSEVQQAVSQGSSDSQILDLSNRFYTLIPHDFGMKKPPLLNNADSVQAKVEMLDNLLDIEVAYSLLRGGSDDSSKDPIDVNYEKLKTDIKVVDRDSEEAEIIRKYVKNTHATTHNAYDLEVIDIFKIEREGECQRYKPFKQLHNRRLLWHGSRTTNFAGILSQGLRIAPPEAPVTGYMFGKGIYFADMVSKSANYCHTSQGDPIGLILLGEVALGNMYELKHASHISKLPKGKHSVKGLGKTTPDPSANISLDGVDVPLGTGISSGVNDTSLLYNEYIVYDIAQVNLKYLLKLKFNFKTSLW

| IC50 [1] | IC50 [2] | inhibition at 0.02 µM ([1]; @ 20 nM, read-out: PARP1 inhibitory rate at certain concentration) | Compound | IC50 [3] | IC50 [4] | inhibition at 5 µM [5] |
| --- | --- | --- | --- | --- | --- | --- |
| 0.61 ± 0.15 nM | 19 ± 1.2 nM | – | C[C@@H]1COCCN1c1cc(CNC(=O)c2ccc(C(=O)N3CCN(C(=O)c4cc(Cc5n[nH]c(=O)c6ccccc56)ccc4F)CC3)nc2)nc(-c2ccnc3[nH]ccc23)n1 [Compound B10, (R)‐6‐(4‐(2‐fluoro‐5‐((4‐oxo‐3,4‐dihydrophthalazin‐1‐yl)methyl)benzoyl)piperazine‐1‐carbonyl)‐N‐((6‐(3‐methylmorpholino)‐2‐(1H‐pyrrolo[2,3‐b]pyridin‐4‐yl)pyrimidin‐4‐yl)methyl) nicotinamide] | 1700 ± 350 nM | > 50000 nM | – |
| 1.7 ± 0.2 nM | 105 ± 7.2 nM | – | C[C@@H]1COCCN1c1cc(C2(NC(=O)c3cnc(N4CCN(C(=O)c5cc(Cc6n[nH]c(=O)c7ccccc67)ccc5F)CC4)nc3)CC2)nc(-c2ccnc3[nH]ccc23)n1 [Compound A12, (R)‐2‐(4‐(2‐fluoro‐5‐((4‐oxo‐3,4‐dihydrophthalazin‐1‐yl)methyl)benzoyl)piperazin‐1‐yl)‐N‐(1‐(6‐(3‐methylmorpholino)‐2‐(1H‐pyrrolo[2,3‐b]pyridin‐4‐yl)pyrimidin‐4‐yl)cyclopropyl)pyrimidine‐5‐carboxamide] | 240 ± 10 nM | > 50000 nM | – |
| 2.3 ± 0.5 nM | 292 ± 13.9 nM | – | C[C@@H]1COCCN1c1cc(C2(NC(=O)c3ccc(N4CCN(C(=O)c5cc(Cc6n[nH]c(=O)c7ccccc67)ccc5F)CC4)cc3)CC2)nc(-c2ccnc3[nH]ccc23)n1 [Compound A11, (R)‐4‐(4‐(2‐fluoro‐5‐((4‐oxo‐3,4‐dihydrophthalazin‐1‐yl)methyl)benzoyl)piperazin‐1‐yl)‐N‐(1‐(6‐(3‐methylmorpholino)‐2‐(1H‐pyrrolo[2,3‐b]pyridin‐4‐yl)pyrimidin‐4‐yl)cyclopropyl)benzamide] | 570 ± 20 nM | > 50000 nM | – |
| 0.75 ± 0.27 nM | 1320 ± 189 nM | – | C[C@@H]1COCCN1c1cc(C2(NS(=O)(=O)c3ccc(C(=O)N4CCN(C(=O)c5cc(Cc6n[nH]c(=O)c7ccccc67)ccc5F)CC4)cc3)CC2)nc(-c2ccnc3[nH]ccc23)n1 [Compound A8, (R)‐4‐(4‐(2‐fluoro‐5‐((4‐oxo‐3,4‐dihydrophthalazin‐1‐yl)methyl)benzoyl)piperazine‐1‐carbonyl)‐N‐(1‐(6‐(3‐methylmorpholino)‐2‐(1H‐pyrrolo[2,3‐b]pyridin‐4‐yl)pyrimidin‐4‐yl)cyclopropyl)benzenesulfonamide] | 620 ± 60 nM | > 50000 nM | – |
| – | – | – | C[C@@H]1COCCN1c1cc(C2(N)CC2)nc(-c2ccnc3[nH]ccc23)n1 [Compound 23] | > 50000 nM | 40700 ± 1360 nM | 20.5% |
| 1.3 ± 0.6 nM | 22 ± 1.7 nM | – | C[C@@H]1COCCN1c1cc(CNC(=O)c2ccc(N3CCN(C(=O)c4cc(Cc5n[nH]c(=O)c6ccccc56)ccc4F)CC3)cc2)nc(-c2ccnc3[nH]ccc23)n1 [Compound B13, (R)‐4‐(4‐(2‐fluoro‐5‐((4‐oxo‐3,4‐dihydrophthalazin‐1‐yl)methyl)benzoyl)piperazin‐1‐yl)‐N‐((6‐(3‐methylmorpholino)‐2‐(1H‐pyrrolo[2,3‐b]pyridin‐4‐yl)pyrimidin‐4‐yl)methyl)benzamide] | 990 ± 60 nM | > 50000 nM | – |
| 3.4 nM | > 500 nM | – | C[C@@H]1COCCN1c1cc(C2(NC(=O)CCCNC(=O)c3cc(Cc4n[nH]c(=O)c5ccccc45)ccc3F)CC2)nc(-c2ccnc3[nH]ccc23)n1 [Compound A4, (R)‐2‐fluoro‐N‐(4‐((1‐(6‐(3‐methylmorpholino)‐2‐(1H‐pyrrolo[2,3‐b]pyridin‐4‐yl)pyrimidin‐4‐yl)cyclopropyl)amino)‐4‐oxobutyl)‐5‐((4‐oxo‐3,4‐dihydrophthalazin‐1‐yl)methyl)benzamide] | 3080 ± 80 nM | > 50000 nM | – |
| 0.64 ± 0.21 nM | 205 ± 13.1 nM | – | C[C@@H]1COCCN1c1cc(CNS(=O)(=O)c2ccc(C(=O)N3CCN(C(=O)c4cc(Cc5n[nH]c(=O)c6ccccc56)ccc4F)CC3)cc2)nc(-c2ccnc3[nH]ccc23)n1 [Compound B9, (R)‐4‐(4‐(2‐fluoro‐5‐((4‐oxo‐3,4‐dihydrophthalazin‐1‐yl)methyl)benzoyl)piperazine‐1‐carbonyl)‐N‐((6‐(3‐methylmorpholino)‐2‐(1H‐pyrrolo[2,3‐b]pyridin‐4‐yl)pyrimidin‐4‐yl)methyl) benzenesulfonamide] | 6880 ± 630 nM | > 50000 nM | – |
| – | – | – | C[C@@H]1COCCN1c1cc(CN)nc(-c2ccnc3[nH]ccc23)n1 [Compound 28] | 40800 ± 4450 nM | > 50000 nM | 21.4% |
| 1.2 ± 0.4 nM | 23 ± 2.1 nM | – | C[C@@H]1COCCN1c1cc(CNC(=O)c2cnc(N3CCN(C(=O)c4cc(Cc5n[nH]c(=O)c6ccccc56)ccc4F)CC3)nc2)nc(-c2ccnc3[nH]ccc23)n1 [Compound B14, (R)‐2‐(4‐(2‐fluoro‐5‐((4‐oxo‐3,4‐dihydrophthalazin‐1‐yl)methyl)benzoyl)piperazin‐1‐yl)‐N‐((6‐(3‐methylmorpholino)‐2‐(1H‐pyrrolo[2,3‐b]pyridin‐4‐yl)pyrimidin‐4‐yl)methyl)pyramidine‐5‐carboxamide] | 90 ± 10 nM | > 50000 nM | – |
| – | > 500 nM | 31.8 ± 2.4% | C[C@@H]1COCCN1c1cc(C2(NC(=O)CCNC(=O)c3cc(Cc4n[nH]c(=O)c5ccccc45)ccc3F)CC2)nc(-c2ccnc3[nH]ccc23)n1 [Compound A3, (R)‐2‐fluoro‐N‐(3‐((1‐(6‐(3‐methylmorpholino)‐2‐(1H‐pyrrolo [2,3‐b]pyridin‐4‐yl)pyrimidin‐4‐yl)cyclopropyl)amino)‐3‐oxopropyl)‐5‐((4‐oxo‐3,4‐dihydrophthalazin‐1‐yl)methyl)benzamide] | 27300 ± 2340 nM | > 50000 nM | – |
| 2 ± 0.3 nM | 37 ± 4.2 nM | – | C[C@@H]1COCCN1c1cc(CNC(=O)c2ccc(CN3CCN(C(=O)c4cc(Cc5n[nH]c(=O)c6ccccc56)ccc4F)CC3)cc2)nc(-c2ccnc3[nH]ccc23)n1 [Compound B12, (R)‐4‐((4‐(2‐fluoro‐5‐((4‐oxo‐3,4‐dihydrophthalazin‐1‐yl)methyl)benzoyl)piperazin‐1‐yl)methyl)‐N‐((6‐(3‐methylmorpholino)‐2‐(1H‐pyrrolo[2,3‐b]pyridin‐4‐yl)pyrimidin‐4‐yl)methyl)benzamide] | 2830 ± 60 nM | > 50000 nM | – |
| 1 ± 0.13 nM | 31.1 ± 4.7 nM | – | C[C@@H]1COCCN1c1cc(CNC(=O)c2ccc(C(=O)N3CCN(C(=O)c4cc(Cc5n[nH]c(=O)c6ccccc56)ccc4F)CC3)cn2)nc(-c2ccnc3[nH]ccc23)n1 [Compound B11, (R)‐5‐(4‐(2‐fluoro‐5‐((4‐oxo‐3,4‐dihydrophthalazin‐1‐yl)methyl)benzoyl)piperazine‐1‐carbonyl)‐N‐((6‐(3‐methylmorpholino)‐2‐(1H‐pyrrolo[2,3‐b]pyridin‐4‐yl)pyrimidin‐4‐yl)methyl) picolinamide] | 480 ± 30 nM | > 50000 nM | – |
| 0.6 ± 0.06 nM | 32 ± 9.3 nM | – | C[C@@H]1COCCN1c1cc(C2(NC(=O)c3ccc(C(=O)N4CCN(C(=O)c5cc(Cc6n[nH]c(=O)c7ccccc67)ccc5F)CC4)nc3)CC2)nc(-c2ccnc3[nH]ccc23)n1 [Compound A9, (R)‐6‐(4‐(2‐fluoro‐5‐((4‐oxo‐3,4‐dihydrophthalazin‐1‐yl)methyl)benzoyl)piperazine‐1‐carbonyl)‐N‐(1‐(6‐(3‐methylmorpholino)‐2‐(1H‐pyrrolo[2,3‐b]pyridin‐4‐yl)pyrimidin‐4‐yl)cyclopropyl)nicotinamide] | 750 ± 160 nM | > 50000 nM | – |
| 12 ± 2.8 nM | 118 ± 14 nM | – | C[C@@H]1COCCN1c1cc(C2(NC(=O)CNC(=O)c3cc(Cc4n[nH]c(=O)c5ccccc45)ccc3F)CC2)nc(-c2ccnc3[nH]ccc23)n1 [Compound A2, (R)‐2‐fluoro‐N‐(2‐((1‐(6‐(3‐methylmorpholino)‐2‐(1H‐pyrrolo [2,3‐b]pyridin‐4‐yl)pyrimidin‐4‐yl)cyclopropyl)amino)‐2‐oxoethyl)‐5‐((4‐oxo‐3,4‐dihydrophthalazin‐1‐yl)methyl)benzamide] | > 50000 nM | 28400 ± 1650 nM | – |
| 19.3 ± 2.9 nM | 185 ± 16.3 nM | – | C[C@@H]1COCCN1c1cc(C2(NC(=O)c3ccc(CN4CCN(C(=O)c5cc(Cc6n[nH]c(=O)c7ccccc67)ccc5F)CC4)cc3)CC2)nc(-c2ccnc3[nH]ccc23)n1 [Compound A10, (R)‐4‐((4‐(2‐fluoro‐5‐((4‐oxo‐3,4‐dihydrophthalazin‐1‐yl)methyl)benzoyl)piperazin‐1‐yl)methyl)‐N‐(1‐(6‐(3‐methylmorpholino)‐2‐(1H‐pyrrolo[2,3‐b]pyridin‐4‐yl)pyrimidin‐4‐yl)cyclopropyl)benzamide] | > 50000 nM | > 50000 nM | – |
